Reference: US20250340570A1, “COMPOSITIONS USEFUL FOR MODULATING SPLICING” (Skyhawk Therapeutics, Inc., priority 2022, published 2025)

Key:
total ATXN3 protein = assay: ATXN3 total protein assay (Mesoscale Discovery); assay type: cell-based; settings: Human neuroblastoma SK-N-MC cells, 48 hours incubation, MSD assay
How it was run: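 SK-N-MC neuroblastoma cells treated 48 hours with compound, 30 µM to 0.6 nM. Lysates assayed by MSD sandwich immunoassay with mouse capture and rabbit detection anti-ATXN3 antibodies; quantified against recombinant ATXN3 standards.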

[1] = test system: ATXN3 transcripts containing exon 4; assay: ATXN3 quantitative splicing assay (qPCR, E4E5 transcripts containing exon 4); assay type: cell-based; settings: Human neuroblastoma SK-N-MC cells, 24 h treatment, qPCR primers/probe E4E5
How it was run: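 SK-N-MC neuroblastoma cells treated 24 h with compounds from 30 μM to 0.6 nM (0.3% DMSO), then lysed for cDNA synthesis. ATXN3 transcripts containing exon 4 quantified by TaqMan qPCR with E4E5 primers/probe; E8E9 set measured total ATXN3.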

`C[C@H](N)Cc1sc2c(NCc3cccs3)snc2c1-c1ccccc1` [Compound 128, 7-[(S)-2-aminopropyl]-8-phenyl-4-thenylamino-3,6-dithia-2-azabicyclo[3.3.0]octa-1,4,7-triene] was tested, and the IC50 (total ATXN3 protein) was 10 to 40 µM and the IC50 [1] was 10 to 40 µM.
